Columns and labels:
[1] = biological target: Human recombinant adrenergic beta-1 (Homo sapiens, UniProt P08588); experiment: Human recombinant adrenergic beta-1 radioligand binding assay ([125I]Cyanopindolol); details: [125I]Cyanopindolol radioligand; read-out: Binding efficacy IC50
Protocol: Human recombinant adrenergic beta-1 Assays (Radioligand Binding) were conducted according to the procedure described by Feve, B., et al., Proc. Natl. Acad. Sci. USA, 91, 5677, 1994 using [[^125I]]Cyanopindolol as a radioligand. The results are expressed in IC50 (nM). (Table B)

albino rabbits [2] = experiment: Evaluation of ocular irritation; format: in vivo, rabbit
Protocol: Thirty albino rabbits were randomly divided into five groups. Each rabbit was dosed in the conjunctival sac of the right eye topically every ten minutes for one hour (six doses) with 50 μL of 0.0%, 0.3%, 0.5%, 1.0% and 2% of test compound, in 0.9% saline solution. The treated eye of each rabbit was examined for indications of ocular irritation, including swelling, discharge, redness, iritis of conjunctiva, eyelid, iris as well as opacity and involvement of the cornea. Individual scores were added to determine the degree of slight, moderate or severe irritation. Ocular observations were made before the treatment, one hour after the first and sixth instillation and then 1, 2, 3, 4 and 7 days, using a slit lamp.

albino rabbits [3] = experiment: Corneal anesthesia measurements (Cochet's esthesiometer); format: in vivo, rabbit
Protocol: The effect of a 50 μl single instillation of 0.3%, 0.5%, 1.0% and 2.0% solution of compound 7 on corneal anesthesia, after a single instillation in the conjunctival sac of the right eyes of albino rabbits (N=5) was measured using a Cochet's esthesiometer (nylon thread: 0.12 mm diameter, 10 mm long). Corneal anesthesia was evaluated by the number of corneal mechanical stimuli necessary to induce a blinking reflex. The effect of drug solutions was compared with sterile 0.9% NaCl treated animals (control group) and 0.4% oxybuprocaine (Novesine®).

[4] = Accelerated stability test of 0.25% solutions in acetate buffer, HPLC; format: physicochemical; details: for projected shelf-life of eye drop formulation: at room temperature, projected from the accelerated test
Protocol: An accelerated stability test was conducted on 0.25% solutions of compounds 6, 7, and 8 (Example 2) at 40° C. for 1, 2, 3, 4, 8 and 12 weeks and monitored for the disappearance of the prodrugs and appearance of the parent compound by HPLC analysis. The parent compound (referred to hereinafter as compound 4) has the formula: [drawing 47]
The respective compounds were dissolved in an acetate buffer, pH 3.5 (0.018% sodium acetate, 0.135% acetic acid, 0.9% sodium chloride in water for injection) to obtain 0.25% solution. The stability of the compounds was determined at 40° C. for 1, 2, 3, 4, 8, and 12 weeks. The concentration of the parent compound as well as the concentrations of the prodrug compounds 6, 7, and 8 at each time point by HPLC method.

[5] = Ocular bioavailability (aqueous humor levels by HPLC); format: in vivo; details: single instillation into conjunctival sac
Protocol: Three rabbits were used per time point. The […] test substance was administered in a single instillation using a micropipette into the conjunctival sac of the right and the left eyes. The rabbits were anesthetized with an intramuscular injection of Imalgène® 1000 (ketamine 32 mg/kg), and Rompun® (xylasine 7.5 mg/kg). They were then desanguinated by cardiac puncture and thereafter euthanized by an overdose of pentobarbital. Immediately after death, the eyes were micro-dissected to obtain: cornea (C), aqueous humor (AH), and iris-ciliary body (ICB). All samples were stored at −80° C. Only aqueous humor (AH) samples were analyzed by HPLC.

Sequence of Human recombinant adrenergic beta-1 (P08588 whole entry): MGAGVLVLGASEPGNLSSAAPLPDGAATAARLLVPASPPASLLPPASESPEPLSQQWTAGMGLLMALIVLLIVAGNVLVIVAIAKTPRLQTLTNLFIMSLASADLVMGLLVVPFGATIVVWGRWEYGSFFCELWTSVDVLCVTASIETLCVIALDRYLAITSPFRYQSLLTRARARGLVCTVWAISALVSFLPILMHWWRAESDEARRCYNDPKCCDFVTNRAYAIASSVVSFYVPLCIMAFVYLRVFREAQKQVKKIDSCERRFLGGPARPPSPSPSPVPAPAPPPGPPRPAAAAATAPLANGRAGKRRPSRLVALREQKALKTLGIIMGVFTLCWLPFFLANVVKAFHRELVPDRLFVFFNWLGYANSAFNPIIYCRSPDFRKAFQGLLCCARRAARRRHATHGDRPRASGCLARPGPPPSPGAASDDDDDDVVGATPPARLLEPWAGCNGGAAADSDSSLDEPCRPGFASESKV

Row | Compound | IC50 [1] | projected shelf-life of eye drop formulation [4] | level of the prodrug itself in aqueous humor [5] | also measured
1 | Cc1cc(O)c(O)cc1C(=O)OC[C@@H](O)CNC(C)(C)CO [Compound 15, (S)-4,5-dihydroxy-2-methyl-benzoic acid 2-hydroxy-3-(2-hydroxy-1,1-dimethyl-ethylamino)-propyl ester] | 39 nM | – | – | –
2 | Cc1cc(O)c(O)cc1C(=O)OC[C@@H](O)CNC(C)(C)COC(=O)C(C)(C)C [Compound 17, (S)-4,5-bis-dihydroxy-2-methyl-benzoic acid 3-[2-(2,2-dimethyl-propionyloxy)-1,1-dimethyl-ethylamino]-2-hydroxy-propyl ester] | 12 nM | – | – | –
3 | Cc1cc(O)c(O)cc1C(=O)OCC(CNC(C)(C)CNC(=O)C1CCOC1)OC(=O)C(C)(C)C (stereo not shown) [Compound 6, reference compound] | – | 2.6 months | below the detection limit | ocular irritation (albino rabbits [2]; at 1% concentration): moderate irritation; corneal sensitivity loss (albino rabbits [3]; at 1%): complete corneal sensitivity loss
4 | Cc1cc(O)c(O)cc1C(=O)OC[C@@H](O)CNC(C)(C)COC(=O)C1CCOC1 (stereo partly drawn) [Compound 19, (S)-Tetrahydro-furan-3-carboxylic acid 2-[3-(4,5-dihydroxy-2-methyl-benzoyloxy)-2-hydroxy-propylamino]-2-methyl-propyl ester] | 6.4 nM | – | – | –
5 | Cc1cc(O)c(O)cc1C(=O)OCC(CNC(C)(C)CNC(=O)C1CCOC1)OC(=O)C1CC1(C)C (stereo not shown) [Compound 8, 4,5-dihydroxy-2-methyl-benzoic acid 2-(2,2-dimethyl-cyclopropanecarbonyloxy)-3-{1,1-dimethyl-2-[(tetrahydro-furan-3-carbonyl)-amino]-ethylamino}-propyl ester] | – | 7.9 months | – | –
6 | Cc1cc(O)c(O)cc1C(=O)OCC(CNC(C)(C)CNC(=O)C1CCOC1)OC(=O)C1(C)CC1 (stereo not shown) [Compound 7, 4,5-Dihydroxy-2-methyl-benzoic acid 3-{1,1-dimethyl-2-[(tetrahydro-furan-3-carbonyl)-amino]-ethylamino}-2-(1-methyl-cyclopropanecarbonyloxy)-propyl ester] | – | at least 18 months | also present in aqueous humor | ocular irritation (albino rabbits [2]; topical, six times every ten minutes at 0.3%, 0.5%, 1.0% and 2.0%, right conjunctival sac, vs 0.9% saline control): no ocular irritation; corneal sensitivity (local anesthetic activity) (albino rabbits [3]; single 50 μl instillation of 0.3%, 0.5%, 1.0% and 2.0% solution, compared to 0.4% oxybuprocaine): no corneal sensitivity (local anesthetic activity); relative stability (percent degradation time course, FIG. 1) ([4]; 0.25% solution, 40° C., pH 3.5, up to 12 weeks): most stable
